Laboratory results: patent US5632983A, “Method for treating secondary immunodeficiency” (University of South Florida, priority 1994, dated 1997)
No end group written: not given here.

Columns and labels:
thymocytes = experiment: Proliferative response (3H-thymidine) of thymocytes in vitro after in vivo treatment, hydrocortisone induced thymic involution in aged mice
Experimental: (§1) The model of hydrocortisone induced thymic involution in aged mice was used unless otherwise indicated (Hadden et al., 1992b).
(§2) Female BALB/c (Life Science, St. Petersburg, Fla.) aged retired breeder mice (8-9 months) whose thymuses had begun to involute were employed in in vivo tests. Mice were weight matched and randomly pooled in groups of five. Animals were fed standard laboratory diets with drinking water ad lib. All mice, with exception of a control group, were treated intraperitoneally (i.p.) with hydrocortisone (5 mg/mouse in 0.1 ml 0.9% sodium chloride) for two consecutive days to induce a chemical thymectomy and reduction of spleen weight.
(§3) Each treatment group had five (5) animals and each experiment was repeated 2-5 times. Treatment was initiated intraperitoneally (i.p.), on Day 3 and continued once per day for a total of five (5) days. Treatment groups were injected with one of the following in vivo treatments as indicated in the text:
(§4) On day 8, the mice were weighed, sacrificed by cervical dislocation, and their spleens and thymuses removed and weighed. The organs were minced, the residual erythrocytes were lysed using ammonium chloride (Mishell and Shiigi, "Selected Methods in Cellular Immunology", 1981), and the cells counted.
(§5) The proliferative response of the cells to various substances was then determined. A sample of cells was prepared for cell culture at 37° C., 5% CO2 in RPMI 1640 medium with 5% fetal bovine serum, penicillin (100 U/ml), streptomycin (100 μg/ml) and 2-mercaptoethanol (2×10^-5 M). The cells were plated in 0.2 ml microwell plates in quadruplicate at a concentration of 1.5×10^6 /ml and incubated for 72 hours with one of the following as indicated in the text:
(§6) To measure DNA synthesis, the culture was terminated with an 18 hours pulse of tritiated thymidine (^3 H-Thymidine; NEN, Boston, Mass.; specific activity 6.7 Ci/mM), harvested with a multiple automatic sample harvester and processed for liquid scintillation counting. The results were expressed as arithmetic mean of cpm from four samples. In order to simplify the representation of data obtained with different animals, the results were pooled and calculated together and in some cases expressed as a ratio to control±SEM.
(§7) In a series of experiments, mice with involuted thymuses were treated in vivo with NCM, Thymosin α1, Thymosin fraction V, combinations of these factors, and saline or media controls. The spleens and thymuses were removed, the cells were tested for cell proliferation responses to stimulation in vitro with the interleukins (IL1, IL2, NCM) or with mitogens (PHA; ConA).

[1] = Spleen weight in hydrocortisone-treated aged mice; type: in vivo; conditions: NCM 50 U of IL-2 per mouse/day; Thymosin α1 5 or 20 microgram/mouse/day (pooled); i.p. 5 days, day 8
Experimental: as §2, §3, §4
(§8) Animals, hydrocortisone treatment, and experimental injections were as described in the general methods. The NCM was injected at 50 U of IL-2 per mouse/day. The Thymosin α1 (T alpha-1 or Tα1) was injected at 5 or 20 microgram/mouse/day.

splenocytes = experiment: Proliferative response (3H-thymidine) of splenocytes in vitro after in vivo treatment, hydrocortisone induced thymic involution in aged mice
Experimental: as §1, §2, §3, §4, §5, §6, §7

[2] = Thymus weight in hydrocortisone-treated aged mice; type: in vivo; conditions: NCM 50 U of IL-2 per mouse/day; Thymosin α1 5 or 20 microgram/mouse/day (pooled); i.p. 5 days, day 8
Experimental: as §2, §3, §4, §8

Thymosin α1 (SDAAVDTSSEITTKDLKEKKEVVEEAEN; not fully specified; ends and bridges not checked; UniProt P01252 2-29, looked up) [28 amino acid peptide initially extracted from bovine thymus and later synthesized]
dose of optimal effects on thymocyte responses to interleukins and mitogen (thymocytes; FIG. 1, dose response 0.2 to 20 μg/animal/day in vivo): 5 μg/mouse | thymocyte responses in vitro to media, rIL-1, rIL-2 and NCM (thymocytes; FIG. 3, in vivo i.p. once per day for 5 days, Thymosin α1 5 μg/mouse, NCM 50 units IL-2 equivalence): increased many of the responses | thymocyte responses to mitogens PHA and ConA (thymocytes; FIG. 5, in vivo treatments as in FIG. 3): significantly augmented both responses | thymocyte responses to rIL-1, IL-2, NCM or ConA (thymocytes; FIGS. 7 and 9, ratio to saline treated control, Thymosin α1 5 μg/mouse/day, TF5 100 μg/mouse/day, NCM 50 units): augmented all of the responses | SPLEEN WEIGHT (mg) Mean ± S.E.M. [1]: 127.66 ± 5.78 mg | dose of optimal effects on splenocyte responses to interleukins and mitogen (splenocytes; FIG. 2, dose response 0.2 to 20 μg/animal/day in vivo): 5 μg/mouse | splenocyte responses in vitro to media, rIL-1, rIL-2 and NCM (splenocytes; FIG. 4, in vivo i.p. once per day for 5 days, Thymosin α1 5 μg/mouse, NCM 50 units IL-2 equivalence): increased many of the responses | splenocyte responses to mitogens PHA and ConA (splenocytes; FIG. 6, in vivo treatments as in FIG. 3): significantly augmented both responses | splenocyte responses to rIL-1, IL-2, NCM or ConA (splenocytes; FIGS. 8 and 10, ratio to saline treated control, Thymosin α1 5 μg/mouse, TF5 100 μg/mouse, NCM 50 units): augmented all of the responses | THYMUS WEIGHT (mg) Mean ± S.E.M. [2]: 25.75 ± 4.45 mg
